Legend:
PMN = conditions: similar potencies for both; cited from earlier work
[1] = test system: LM2 and CN34LM1 lung metastatic human breast cancer cell lines; test: Preclinical trial of AC chemotherapy and CXCR2 antagonist in orthotopic lung metastatic breast cancer xenografts; type: in vivo, mice
Method: Data represent average expression±SEM. n=10-13 mice per group. P values were determined by Student's t-test. *p=0.02, **p=0.007.
Data are average foci per field of view (FOV)±SEM. n=5-10 mice per group. Whiskers represent minimum and maximum values. P values were determined by two-tailed Wilcoxon rank-sum test.
Tumor vessel characteristics and lung metastatic foci size and number were quantified using Metamorph software (Molecular Devices) as previously described (DeNardo et al., 2009; Gupta et al., 2007). In brief, 10 random images at 20× magnification were taken per tumor section stained with CD34, MECA32 or Von Willebrand factor by immunohistochemistry. Images were thresholded, stained area was calculated by counting objects per field and vessel characteristics were analyzed using Metamorph measurement module. For quantitating lung metastatic foci area and number, 8-12 random images at 20× magnification were taken per lung section stained with vimentin by immunohistochemistry. A minimum of 5 sections was analyzed per animal across different depths of the tissue. For quantitation, images were thresholded and number of metastatic foci determined. Metastatic foci was considered if they contained more than 5 cells. Foci were counted and analyzed using Metamorph measurement module. […]

SMILES | CXCL8- and CXCL1-mediated PMN chemotaxis (PMN) | lung metastatic burden ([1]; CXCR2 inhibitor combined with AC chemotherapy) | S100A9 expressing cells (immunostaining) ([1]; CXCR2 inhibitor/chemotherapy treatment)
C[C@@H](C(N)=O)c1ccc(OS(=O)(=O)C(F)(F)F)cc1 [4-[(1R)-2-amino-1-methyl-2-oxoethyl]phenyl trifluoromethane sulfonate] | inhibit |  | 
N#Cc1ccc(NC(=O)Nc2ccccc2Br)c2n[nH]nc12 [CXCR2 inhibitor] |  | markedly reduced | significant reduction
